From patent US9987243B2, “Use of trans-palmitoleate in identifying and treating metabolic disease” (Trustees of Tufts College, priority 2010, dated 2018)

Test system: 2,985 participants free of prevalent diabetes at baseline
Assay: Cardiovascular Health Study: plasma phospholipid fatty acids and incident diabetes mellitus (Cox proportional-hazards)
Type: in vivo, human
Settings: per each higher SD of the plasma phospholipid fatty acid; multivariable-adjusted (covariates as in Table 4)
Description: Plasma phospholipid fatty acids, anthropometry, blood lipids, inflammatory markers, and glucose-insulin levels were measured at baseline using standardized methods. Independent determinants of trans-palmitoleate and relationships of trans-palmitoleate with metabolic risk factors were investigated using multivariable-adjusted linear regression.
Multivariable model adjusted for age (years), gender (male/female), race (white/nonwhite), education (<high school, high school, some college, college graduate), enrollment site (four sites), smoking (never, former, current), body mass index (kg/m^2), waist circumference (cm), coronary heart disease (yes/no), physical activity (kcal/wk), alcohol use (six categories), and consumption of carbohydrate (% energy), protein (% energy), red meat (servings/week), whole-fat dairy foods (6 categories), low-fat dairy foods (five categories), and total energy (kcal/d).
Participants were followed by means of annual examinations for 10 years with interim and subsequent 6-month telephone contacts. Ives et al., 5 Ann. Epidemiol. […] At each visit, detailed medication information was obtained using medication inventories. At baseline, study interviewers visited participants in their homes and asked to see all prescription medications they had taken in the previous 2 weeks. At follow-up exams, participants brought to clinic all prescription medications taken in the previous 2 weeks. Drug names, doses, and frequencies were coded according to prescription medication Medispan files.
Relationships between phospholipid fatty acids were evaluated using Spearman correlation. Trans-palmitoleate levels were evaluated in sex-specific quintiles as indicator variables and continuously per SD difference. Independent demographic and lifestyle determinants of trans-palmitoleate were evaluated using multivariable-adjusted linear regression with trans-palmitoleate as the dependent variable. Multivariable-adjusted relationships of trans-palmitoleate with metabolic risk factors (transformed for normality as appropriate) were evaluated using linear regression with trans-palmitoleate as the independent variable. Quintiles were evaluated as ordinal variables to assess trend, to assess effect modification using the Wald test for a multiplicative interaction term, and to assess differences in baseline characteristics by means of linear or logistic regression. […] To minimize potential confounding, covariates were selected based on biologic interest, being well-established risk factors for metabolic risk, or associations with exposures/outcomes in the present cohort. […] Analyses were performed using Stata10.1 (College Station, Tex.), two-tailed alpha=0.05.

| SMILES | RR of diabetes per SD |
| --- | --- |
| CCCCCCCCCCCCCCC(=O)O [15:0, pentadecanoic acid, reference compound] | 1.01 |
| CCCCCCCCCCCCCCCCC(=O)O [17:0, reference compound] | 0.98 |
